Values of other authors in patent publication US20250073243A1, “LOW BACK PAIN TREATMENT” (Persica Pharmaceuticals Ltd., priority 2021, published 2025).
Values after ≈ are worked out from the molar mass of the structure shown.

Tests used:
[1] = oral administration; patients with chronic LBP

Compound | improvement in outcome measures [1] | Cmax observed for a standard linezolid dose (standard 600 mg linezolid dose) | half-life of standard linezolid administration (standard linezolid administration) [h] | minimum inhibitory concentration (MIC) (Gram-positive bacteria) [µg/mL]
amoxicillin-clavulanate | clinically important and statistically significant (p<0.001) improvement in all outcome measures | – | – | –
CC(=O)NC[C@H]1CN(c2ccc(N3CCOCC3)c(F)c2)C(=O)O1 [linezolid, (S)—N-((3-(3-fluoro-4-morpholinophenyl)-2-oxooxazolidin-5-yl)methyl) acetamide] | – | approximately 15 μg/ml | 4 to 5 | 1 (≈ 2.96 µM)
